In BindingDB's records for doi:10.1016/j.bmcl.2015.11.098 (Janssen Pharmaceutica, 2016):

Target: Metabotropic glutamate receptor 5 (Homo sapiens, UniProt P41594)
Test: Positive allosteric modulation of human mGlu5 expressed in HEK293 cells assessed as glutamate-induced calcium mobilization

Chain of Metabotropic glutamate receptor 5 (P41594 whole entry): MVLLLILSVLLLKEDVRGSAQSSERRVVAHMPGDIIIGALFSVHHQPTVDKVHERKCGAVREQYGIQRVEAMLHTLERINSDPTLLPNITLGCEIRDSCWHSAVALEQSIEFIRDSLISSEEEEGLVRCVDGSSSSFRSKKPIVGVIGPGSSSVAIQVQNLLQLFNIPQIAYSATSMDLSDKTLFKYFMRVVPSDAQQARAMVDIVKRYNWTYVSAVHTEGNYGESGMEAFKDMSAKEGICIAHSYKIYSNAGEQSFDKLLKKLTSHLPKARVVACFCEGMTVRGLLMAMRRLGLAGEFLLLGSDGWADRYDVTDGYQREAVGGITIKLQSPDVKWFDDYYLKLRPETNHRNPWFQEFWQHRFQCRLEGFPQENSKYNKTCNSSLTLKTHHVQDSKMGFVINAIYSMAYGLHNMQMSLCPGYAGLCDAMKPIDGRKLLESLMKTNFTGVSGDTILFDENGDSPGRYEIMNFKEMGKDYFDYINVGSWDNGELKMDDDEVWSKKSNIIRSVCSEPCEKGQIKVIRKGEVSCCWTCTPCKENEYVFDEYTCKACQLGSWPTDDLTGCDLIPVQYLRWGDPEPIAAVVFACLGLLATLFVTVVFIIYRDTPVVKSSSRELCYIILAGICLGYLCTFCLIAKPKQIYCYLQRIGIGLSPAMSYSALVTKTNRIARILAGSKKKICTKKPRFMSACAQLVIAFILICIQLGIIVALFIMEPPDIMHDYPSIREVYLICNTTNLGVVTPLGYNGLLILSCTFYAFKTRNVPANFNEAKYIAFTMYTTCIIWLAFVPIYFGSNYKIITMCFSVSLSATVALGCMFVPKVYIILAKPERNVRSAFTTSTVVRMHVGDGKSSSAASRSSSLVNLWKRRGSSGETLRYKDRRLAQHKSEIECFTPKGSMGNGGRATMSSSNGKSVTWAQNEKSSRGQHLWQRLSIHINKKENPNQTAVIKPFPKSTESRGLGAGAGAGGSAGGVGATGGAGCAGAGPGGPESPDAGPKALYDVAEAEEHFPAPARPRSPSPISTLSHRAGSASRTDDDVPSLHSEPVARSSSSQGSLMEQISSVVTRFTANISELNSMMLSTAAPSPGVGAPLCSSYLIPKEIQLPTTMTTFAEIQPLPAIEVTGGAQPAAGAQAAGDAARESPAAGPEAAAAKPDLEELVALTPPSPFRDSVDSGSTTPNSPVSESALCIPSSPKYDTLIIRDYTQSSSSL

- EC50: 2.81 µM
SMILES: O=C1c2nc(COc3ccccc3)nn2CCN1c1ccc(F)cc1
